Reference: patent US10377818B2, “Method of treating glioma” (The Board of Trustees of the Leland Stanford Junior …, priority 2015, dated 2019)
Where two headings read alike, the source gives them in different places.

What was measured:
secreted NLGN3 = assay: Secreted NLGN3 in active CM of acute cortical slices incubated with protease inhibitors, Western blot; assay type: cell-based, mouse; details: slices incubated with protease inhibitor during optogenetic stimulation, preliminary experiments
Description: (§1) Thy1::ChR2 or WT mice between the age of 4-7 weeks were briefly exposed to CO2, and immediately decapitated. Extracted brains were placed in oxygenated sucrose solution and sliced in 350-μm sections using a vibratome (Leica VT 1200S, Buffalo Grove, Ill.). Slices were then placed in buffering solution (aCSF; 119 mM NaCl, 11 mM D-glucose, 25 mM NaHCO3, 2.5 mM KCl, 1.2 mM NaH2PO4, 2.3 mM MgCl2, and 2.5 mM CaCl2) and allowed to recover for at least an hour. After recovery, slices were then moved into a 24 well plate and stimulated using a blue-light LED from a microscope objective. The stimulation paradigm mirrored in vivo experiments, using 20-Hz pulses of blue light for a 30 s on, 90 s off cycle over a period of 30 minutes. Surrounding medium was then collected for immediate use or frozen for future experiments.
A series of similar preliminary experiments were performed in which acute cortical slices were incubated with different protease inhibitors during optogenetic stimulation and then the active CM was analyzed by Western blot for secreted NLGN3.
Role for MMP9 in NLGN3 secretion: Acute cortical slices from Thy1::ChR2 mice were optogenetically-stimulated in the presence or absence of protease inhibitors as indicated. Conditioned media was analyzed by Western blot for secreted NLGN3 content.

[1] = test system: NLGN3 mRNA in SU-pcGBM2 cells; assay: qPCR of NLGN3 gene expression in SU-pcGBM2 cells; assay type: cell-based, human; details: for effect on soluble NLGN3-induced increase in NLGN3 gene expression: 50 nM NLGN3 plus inhibitor, BKM120 500 nM (FIG. 5E) or 100 nM (FIG. 29), RAD001 100 nM
SU-pcGBM2 cells [2] = assay: EdU incorporation assay, proliferation index of pHGG cells (SU-pcGBM2); assay type: cell-based, human; details: for potency of proliferation promotion compared with NLGN3: pHGG cells, dose curves 0-100 nM; for effect on proliferation index relative to aCSF control: recombinant candidate proteins at 100 nM for 24 hours; for effect on the proliferative effect of active CM: 100 nM TRKB inhibitor ANA12 in combination with 500 nM NRXN; for effect on 50 nM NLGN3-induced increase in proliferation index: inhibitor 100 nM, EdU assay
SU-pcGBM2 cells [3] = assay type: cell-based, human
[4] = test system: soluble NLGN3 in the CM (NLGN3 secretion); assay: Soluble NLGN3 in CM of optogenetically stimulated acute cortical slices, 2D-PAGE and mass spectrometry; assay type: cell-based, mouse; details: slices incubated with inhibitor during optogenetic stimulation; pilot experiment
Description: as §1

pHGG cells = assay: pHGG cell proliferation with active CM from slices stimulated in presence of protease inhibitor; assay type: cell-based, human; details: inhibitor present during optogenetic stimulation of slices
From the text: MMP inhibition abrogates activity-regulated glioma proliferation. Acute cortical slices were optogenetically-stimulated in the presence or absence of a protease inhibitor as in Example 14, and pHGG cells were exposed to the CM. As expected, active CM in the absence of protease inhibitors contained secreted NLGN3 (FIG. 37) and promoted glioma cell proliferation (FIG. 38).
MMP inhibition in situ reduces activity-regulated glioma cell proliferation in vitro Active CM from Thy1::ChR2 cortical slices were incubated with either the multi-MMP inhibitor batimastat (A) or the ADAM17 inhibitor TAPI (B) during optogenetic stimulation and the active CM collected. Unconditioned media (aCSF) with or without inhibitor was used in control wells. Data shown as mean±SEM. One-way ANOVA, *P<0.05, ***P<0.001. n.s.=P>0.05.

Compound: CC(C)ON(CC(=O)NO)S(=O)(=O)c1ccc(-c2ccccc2)cc1 [ARP100]
- secreted NLGN3 levels in active CM (secreted NLGN3): No detectable decrease in secreted NLGN3

Compound: EGF: Epidermal growth factor (Shenandoah), ligand known to stimulate the PI3K pathway
- effect on glioma cell NLGN3 expression ([1]; 50 nM EGF, 12 hour vs vehicle): no effect was found

Compound: GRP78: Recombinant 78-kDa glucose-regulated protein (Abcam), known glioma mitogen
- potency of proliferation promotion compared with NLGN3 (SU-pcGBM2 cells [2]): less potently than NLGN3
- effect on proliferation index relative to aCSF control (SU-pcGBM2 cells [2]): promote glioma cell proliferation

Compound: COc1ccc(S(=O)(=O)N2CCN(C(=O)OCc3ccccc3)CC2C(=O)NO)cc1 (stereo not drawn) [MMP9/13 Inhbitor II]
- secreted NLGN3 levels in active CM (secreted NLGN3): significant decrease in NLGN3 levels

Compound: NRXN1β: Recombinant neurexin-1β (R&D Systems), binds NLGN3 with high affinity, used to deplete NLGN3
- effect on the proliferative effect of active CM (SU-pcGBM2 cells [2]): completely abrogates the proliferative effect of active CM
- effect on proliferation index (SU-pcGBM2 cells [2]; NRXN1β alone (500 nM) added to aCSF or to CM from WT cortical slices): no effect on proliferation index
- proliferation index (SU-pcGBM2 cells [2]; pHGG cells exposed to 50 nM NLGN3+500 nM NRXN1β): 0.28±0.01
- proliferation index (SU-pcGBM2 cells [2]; pHGG cells exposed to Thy1::ChR2 CM+NRXN1β (500 nM)): 0.34±0.01

Compound: ApoE: Recombinant candidate protein from proteomic analyses of cortical slice conditioned media
- effect on proliferation index relative to aCSF control (SU-pcGBM2 cells [2]): did not differ

Compound: O=C(Nc1ccccc1C(=O)NC1CCCCNC1=O)c1cc2ccccc2s1 (stereo not drawn) [ANA12, reference compound]
- effect on the proliferative effect of active CM (SU-pcGBM2 cells [2]): completely abrogates the proliferative effect of active CM

Compound: CO[C@H]1C[C@@H]2CC[C@@H](C)[C@@](O)(O2)C(=O)C(=O)N2CCCC[C@H]2C(=O)O[C@H]([C@H](C)C[C@@H]2CC[C@@H](OCCO)[C@H](OC)C2)CC(=O)[C@H](C)/C=C(\C)[C@@H](O)[C@@H](OC)C(=O)[C@H](C)C[C@H](C)/C=C/C=C/C=C/1C [RAD001, reference compound]
- effect on 50 nM NLGN3-induced increase in proliferation index (SU-pcGBM2 cells [2]): blocks 50 nM NLGN3-induced proliferation
- effect on soluble NLGN3-induced increase in NLGN3 gene expression ([1]; 12 h): prevented the feed-forward effect of NLGN3 on NLGN3 gene expression

Compound: Cl.Nc1cc(C(F)(F)F)c(-c2cc(N3CCOCC3)nc(N3CCOCC3)n2)cn1 [BKM120, 5-(2,6-dimorpholin-4-ylpyrimidin-4-yl)-4-(trifluoromethyl)pyridin-2-amine hydrochloride]
- effect on 50 nM NLGN3-induced increase in proliferation index (SU-pcGBM2 cells [2]): blocked
- effect on soluble NLGN3-induced increase in NLGN3 gene expression ([1]; 12 h): blocked the soluble NLGN3-induced increase in NLGN3 gene expression
- effect on NLGN3 expression in the absence of soluble NLGN3 exposure ([1]; BKM120 alone, 12 h): no effect on NLGN3 expression

Compound: BDNF: Recombinant brain-derived neurotrophic factor (R&D Systems), candidate mitogen
- potency of proliferation promotion compared with NLGN3 (SU-pcGBM2 cells [2]): less potently than NLGN3
- effect on proliferation index relative to aCSF control (SU-pcGBM2 cells [2]): promote glioma cell proliferation

Compound: NC1=N[C@H](O)[C@H]2[C@H]3O[C@]4(O)O[C@@H]([C@@H](O)[C@@]2(N1)[C@@H]4O)[C@]3(O)CO [TTX, tetrodotoxin]
- proliferation index (SU-pcGBM2 cells [3]): ~0.25

Compound: CNC(=O)[C@@H](NC(=O)[C@H](CCCc1ccccc1)[C@H](C)N(O)C=O)C(C)(C)C [GI254023X]
- reduction in soluble NLGN3 in the CM [4]: ~50%

Compound: TAPI
- effect on the mitogenic effect of active CM (pHGG cells): did not alter the mitogenic effect of active CM
- secreted NLGN3 levels in active CM (secreted NLGN3): no effect on NLGN3 levels was observed
- secreted NLGN3 levels in active CM (secreted NLGN3; listed as ADAM17 inhibitor): did not decrease NLGN3 levels

Compound: O=C(NO)[C@@H](Cc1ccccc1)NS(=O)(=O)c1ccc(-c2ccccc2)cc1 [MMP2/9 inhibitor SCBT inhibitor II, (2R)—N-hydroxy-3-phenyl-2-[(4-phenylphenyl)sulfonylamino]propanamide]
- secreted NLGN3 levels in active CM (secreted NLGN3): significant decrease in NLGN3 levels
